Assay results as given in patent US9000166B2, “Metal complexes” (Merck Patent GmbH, priority 2005, dated 2015).

Assay: Solubility in various solvents at T=25° C.
Assay type: physicochemical
Excerpt: Excellent solubility of the complex is found in many common organic solvents, even in polar protic solvents, such as ethanol and ethanol/water mixtures. As comparison in accordance with the prior art, the solubility of fac-tris[2-(2-pyridinyl-κN)phenyl-κC]iridium(III) (IrPPy) is indicated.

## fac-Tris[2-(2-pyridinyl-κN)-5-(tri-n-butylphosphonium)phenyl)-κC]iridium(III) tribromide [Example 1]
Acetone
  Solubility: unlimited
Chloroform
  Solubility: unlimited
DMF
  Solubility: unlimited
DMSO
  Solubility: unlimited
Dichloromethane
  Solubility: unlimited
Ethanol
  Solubility: 134.0 mg/mL
Hexane
  Solubility: >1.0 mg/mL
NMP
  Solubility: unlimited
Toluene
  Solubility: unlimited
Water
  Solubility: 11.5 mg/mL
Water/ethanol (1:1, v,v)
  Solubility: 43.0 mg/mL
